Each block holds one compound with its values, some of them ahead of it.
Key:
muscle-R1KO mice [1] = assay: Treatment of muscle-R1KO mice with AICAR, resveratrol or MnTBAP; assay type: in vivo; conditions: AICAR 500 mg per kg body weight, 2 hours
Procedure: Mitochondrial content assays were carried out as described in the following document (Cell Metab. 4, 75-87 (2006)), with slight modifications. Quantification of the mitochondrial content was conducted by using mtDNA and MitoTracker Green probe (Molecular Probes) according to the method as described in the following document (Obes. Res. 13, 574-581 (2005)). MitoTracker Green probe preferentially accumulates in mitochondria regardless of the mitochondrial membrane potential and provides an accurate assessment of mitochondrial mass. Cells were washed with PBS and after addition of 100 nM MitoTracker Green FM (Molecular Probes), incubated at 37° C. for 30 min. […] Fluorescence intensity was detected with excitation and emission wavelengths of 490 and 516 nm, respectively, and the values thus measured were corrected for total protein (mg/ml).
Oral glucose tolerance test (OGTT) and insulin tolerance test (ITT) were conducted by the method described in the following documents (Nature Med. 8, 1288-1295 (2002); Nature Med. 7, 941-946 (2001)), with some modifications. The areas of the glucose and insulin curves were calculated, respectively, by multiplying the cumulative mean height of the glucose values (1 mg/ml=1 cm) and insulin values (1 ng/ml=1 cm) by time (60 min=1 cm) (Nature Med. 13, 332-339 (2007); Nature Med. 7, 941-946 (2001)). […]

muscle-R1KO mice [2] = assay: Increased calcium influx experiment (Bay-K 8644 hydrogel) in muscle-R1KO mice; assay type: in vivo; conditions: 0.25 μM Bay-K 8644
AMPK = AMPK phosphorylation in C2C12 myocytes; assay type: cell-based, mouse; conditions: C2C12; for effect on adiponectin-induced increased AMPK phosphorylation: preincubation 5 mM EGTA 20 min, 50 μM BAPTA-AM 30 min or 10 μM U73122 30 min, then adiponectin 30 μg/ml 5 min
Procedure: (§1) The mouse C2C12 myoblasts were grown in 90% Dulbecco's modified high glucose Eagle's medium containing 10% (v/v) fetal bovine serum. When the cells reached 80% confluent, the myoblasts were induced to differentiate into myocytes by replacing the medium with a low serum differentiation medium (98% Dulbecco's modified high glucose Eagle's medium, 2.5% (v/v) horse serum). The medium was changed daily. The C2C12 cells were transfected by using Pofectamine 2000 (Invitrogen) and following the manufacturer's instructions.

AdipoR1 = target: T1, AdipoR1 (Mus musculus, UniProt Q91VH1); assay: Electrophysiological recording in Xenopus oocytes expressing AdipoR1; assay type: cell-based; conditions: oocytes expressing AdipoR1, 5 mM EGTA
T1 construct: expressed in transfected cells; host or cells: Xenopus oocytes (stage V to VII), cRNA synthesized from linearized modified pSPUTK
T1 sequence (Q91VH1 1-375): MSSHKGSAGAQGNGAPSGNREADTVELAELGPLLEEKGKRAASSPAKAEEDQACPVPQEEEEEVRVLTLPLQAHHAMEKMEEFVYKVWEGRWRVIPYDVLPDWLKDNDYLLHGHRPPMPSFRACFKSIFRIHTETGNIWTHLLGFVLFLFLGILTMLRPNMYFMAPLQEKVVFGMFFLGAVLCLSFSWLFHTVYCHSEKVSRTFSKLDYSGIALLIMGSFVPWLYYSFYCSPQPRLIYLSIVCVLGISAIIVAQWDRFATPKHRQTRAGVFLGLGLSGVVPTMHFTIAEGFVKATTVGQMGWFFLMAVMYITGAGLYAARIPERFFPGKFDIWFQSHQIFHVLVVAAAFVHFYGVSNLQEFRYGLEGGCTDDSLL
Procedure: Stage V to VII oocytes were treated with 2 mg/ml of collagenase S-1 (Nitta gelatin) in calcium ion-free saline solution (82.5 mM NaCl, 2 mM KCl, 1 mM MgCl2, and 5 mM HEPES, pH 7.5) for 1 to 2 hr at room temperature. The resulting oocytes were then microinjected with 50 ng of cRNA for mAdipoR1. The cRNA was synthesized from linearized modified pSPUTK. The injected oocytes were incubated for 3 days at 18° C. in a bath solution (88 mM NaCl, 1 mM KCl, 0.3 mM Ca(NO3)2, 0.4 mM CaCl2, 0.8 mM MgSO4, 2.4 mM […], 15 mM HEPES, pH 7.6) supplemented with 10 μg/ml of penicillin and streptomycin.
Whole cell currents were recorded with a two-electrode voltage clamp technique. Intracellular glass electrodes were filled with 3M KCl. Signals were amplified with an OC-725C amplifier (Warner Instruments), low-pass filtered at 50 Hz, and digitized at 1 kHz. A control bath solution contained 115 mM NaCl, 2.5 mM KCl, 1.8 mM CaCl2, and 10 mM HEPES. It was titrated to pH 7.2 with NaOH. A calcium ion free solution containing 1.8 mM BaCl2 instead of CaCl2 was used. The inward current was monitored at a holding potential of −80 mV. Calcium ion activated Cl^− current was monitored by applying 500-mscc depolarizing pulses of +100 mV and +50 mV from the holding potential of −80 mV. Adiponectin was supplied to the superfusing bath solution via a silicon tube connected to computer-driven solenoid valves. Data acquisition and analysis were carried out using Digidata 1322A and pCLAMP software.

C2C12 myocytes [3] = assay: Calcium imaging in C2C12 myocytes (fura-2); assay type: cell-based, mouse
Procedure: C212 myocytes cultured on glass base dishes (IWAKI) were treated with 2.5 μM fura-2/AM for 30 min. Fluorescence was measured with an Aquacosmos Calcium Imaging system (Hamamatsu Photonics). Ligands were delivered through the superfusing Ringer's solution (140 mM NaCl, 5.6 mM KCl, 5 mM HEPES, 2.0 mM sodium pyruvate, 1.25 mM KH2PO4, 2.0 mM CaCl2, 2.0 mM MgCl2, 9.4 mM D-glucose (pH 7.4)). For the calcium chelating experiment, EGTA solution (140 mM NaCl, 5.6 mM KCl, 5 mM HEPES, 2.0 mM sodium pyruvate, 1.25 mM KH2PO4, 2.0 mM MgCl2, 5.0 mM EGTA-2Na, 9.4 mM D-glucose (pH 7.4) was used for the bath solution. Fura-2 fluorescence ratios were calibrated to calcium ion signals.

CaMKI = CaMKI phosphorylation in C2C12 myocytes; assay type: cell-based, mouse; conditions: EGTA 5 mM
Procedure: as §1

PGC-1α (Ppargc1a) = PGC-1α (Ppargc1a) expression in C2C12 myocytes; assay type: cell-based, mouse; conditions: C2C12; preincubation AraA 0.5 mM 1 hr, STO-609 1 μg/ml 6 hr or EGTA 5 mM 20 min, then adiponectin 10 μg/ml 1.5 hr
Procedure: Real-time PCR was carried out according to the method described in the following documents (Nature Med. 13, 332-339 2007); Nature 423, 762-769 (2003); J. Biol. Chem. 281, 8748-8755 (2006)). Total RNA was prepared from cells or tissues by using Trizol (Invitrogen) according to the manufacturer's instructions. Quantification of mRNA was conducted using a real-time PCR method (Nature 423, 762-769 (2003)) with slight modifications. The procedures used for immunoblotting are described in the following documents (Nature Med. 7, 941-946 (2001); J. Biol. Chem. 281, 26602-26614 (2006); J. Biol. Chem. 281, 8748-8755 (2006)). The livers or muscles were freeze-clamped in liquid nitrogen in situ (Nature Med. 7, 941-946 (2001); J. Biol. Chem. 281, 26602-26614 (2006); J. Biol. Chem. 281, 8748-8755 (2006)).
as §1

C2C12 myocytes [4] = assay: Mitochondrial content assay in C2C12 myocytes; assay type: cell-based, mouse; conditions: C2C12; preincubation AraA 0.5 mM 1 hr or STO-609 1 μg/ml 6 hr, then 10 μg/ml adiponectin 48 hr
Procedure: as §1
Mitochondrial content assays were carried out as described in the following document (Cell Metab. 4, 75-87 (2006)), with slight modifications. Quantification of the mitochondrial content was conducted by using mtDNA and MitoTracker Green probe (Molecular Probes) according to the method as described in the following document (Obes. Res. 13, 574-581 (2005)). MitoTracker Green probe preferentially accumulates in mitochondria regardless of the mitochondrial membrane potential and provides an accurate assessment of mitochondrial mass. Cells were washed with PBS and after addition of 100 nM MitoTracker Green FM (Molecular Probes), incubated at 37° C. for 30 min. Cells were harvested by using trypsin/EDTA and resuspended in PBS. Fluorescence intensity was detected with excitation and emission wavelengths of 490 and 516 nm, respectively, and the values thus measured were corrected for total protein (mg/ml).

SMILES: NC(=O)c1ncn([C@@H]2O[C@H](CO)[C@@H](O)[C@H]2O)c1N [AICAR, 5-aminoimidazole-4-carboxamide-1-β-D-libocide]
phosphorylation of AMPK in muscle (muscle-R1KO mice [1]): significantly increased

SMILES: COC(=O)C1=C(C)NC(C)=C([N+](=O)[O-])C1c1ccccc1C(F)(F)F (centres unmarked) [Bay-K 8644]
CaMKKβ activity (phosphorylation of CaMKI) in skeletal muscle (muscle-R1KO mice [2]): increase in CaMKKβ activity

SMILES: COc1ccc2c(c1)CC[C@@H]1[C@@H]2CC[C@]2(C)[C@@H](NCCCCCCN3C(=O)C=CC3=O)CC[C@@H]12 [U73122]
effect on adiponectin-induced increased AMPK phosphorylation (AMPK): had little effect

SMILES: CC(=O)OCOC(=O)CN(CC(=O)OCOC(C)=O)c1ccccc1OCCOc1ccccc1N(CC(=O)OCOC(C)=O)CC(=O)OCOC(C)=O [BAPTA-AM, Bis-(o-aminophenoxy)ethane-N,N,N9,N9-tetra-acetic acid, tetraacetoxymethyl ester]
effect on adiponectin-induced increased AMPK phosphorylation (AMPK): partially suppressed

effect on adiponectin-induced inward current responses (AdipoR1): almost completely abolishes | effect on calcium-ion activated Cl- current responses to adiponectin (AdipoR1): almost completely abolished
SMILES: O=C(O)CN(CCOCCOCCN(CC(=O)O)CC(=O)O)CC(=O)O [EGTA, reference compound]
effect on adiponectin-induced calcium ion response (C2C12 myocytes [3]; 5 mM EGTA): almost completely abolished | effect on ATP-induced intracellular calcium ion release (C2C12 myocytes [3]; EGTA): had no effect | effect on increased CaMKI phosphorylation stimulated with adiponectin (CaMKI): almost completely abolished | effect on phosphorylation of AMPK induced by AICAR (AMPK; 5 mM EGTA, AICAR 1 mM 1 hr): had no effect | effect on ionomycin-dependent phosphorylation of AMPK (AMPK; 5 mM EGTA, ionomycin 1 μM 5 min): almost completely abolished | effect on adiponectin-induced increased AMPK phosphorylation (AMPK): partially suppressed | effect on PGC-1α expression induced by adiponectin (PGC-1α (Ppargc1a)): effectively and almost completely abolished

SMILES: O=C(O)c1ccc2c3c1cccc3c(=O)n1c3ccccc3nc21 [STO-609, reference compound]
effect on the adiponectin-induced increase in mitochondrial biogenesis (C2C12 myocytes [4]): almost completely abolished | effect on PGC-1α expression induced by adiponectin (PGC-1α (Ppargc1a)): effectively and almost completely abolished

SMILES: Nc1ncnc2c1ncn2[C@@H]1O[C@H](CO)[C@@H](O)[C@@H]1O [AraA, reference compound]
effect on the adiponectin-induced increase in mitochondrial biogenesis (C2C12 myocytes [4]): almost completely abolished | effect on PGC-1α expression induced by adiponectin (PGC-1α (Ppargc1a)): only tended to decrease

— patent US20130274185A1, “Pharmaceutical for Pseudo-Exercise Therapy” (THE UNIVERSITY OF TOKYO, priority 2010, published 2013)
